Assay results published in US20240208934A1, “ULK1/2 INHIBITORS AND THEIR USE THEREOF” (LifeArc, priority 2021, published 2024).

System: ULK
Assay: ULK radiometric assay (33P incorporation onto MBP substrate, glass fiber capture filter)
Details: ULK Biochemical activity; 20 uM ATP, 0.2 mg/mL MBP; averages of at least two independent experiments
Method: ULK activity was measured using a radiometric assay, to measure the incorporation of radiolabelled ^33P onto MBP substrate using a glass fiber capture filter method. Reaction conditions were 0.2 mg/mL MBP, 20 uM ATP (0.25 μCi/well), 50 mM Tris HCl, pH7.5, 10 mM MgCl2, 0.1% beta-mercaptoethanol, 0.1 mM EGTA, 0.01% BSA. Ten point Half log Compound dilution series were prepared in 100% DMSO and added to the reaction to give final assay concentration of 10% DMSO. Compounds were tested in duplicate and values normalized to 10% DMSO only controls. The data were fitted to a four parameter fit equation and the IC50 values shown are averages of at least two independent experiments.

COc1cc2c(cc1Nc1ncc(C(F)(F)F)c(NC3CCN(S(C)(=O)=O)CC3)n1)CNCC2 [Example 72, N2-(6-methoxy-1,2,3,4-tetrahydroisoquinolin-7-yl)-N4-(1-methylsulfonyl-4-piperidyl)-5-(trifluoromethyl)pyrimidine-2,4-diamine]
IC50: ≥ 1000 nM

CC(=O)N1CCc2cc(Cl)c(Nc3ncc(C(F)(F)F)c(NCCCN4CCCCC4=O)n3)cc2C1 [Example 56, 1-[3-[[2-[(2-Acetyl-6-chloro-3,4-dihydro-1H-isoquinolin-7-yl)amino]-5-(trifluoromethyl)pyrimidin-4-yl]amino]propyl]piperidin-2-one]
IC50: 200 to 1000 nM

FC(F)(F)c1cnc(Nc2ccc(CCN3CCCC3)cc2)nc1NCc1cc[nH]n1 [Example 86, N4-(1H-pyrazol-3-ylmethyl)-N2-[4-(2-pyrrolidin-1-ylethyl)phenyl]-5-(trifluoromethyl)pyrimidine-2,4-diamine]
IC50: 200 to 1000 nM

COc1cc2c(cc1Nc1ncc(C(F)(F)F)c(NCCCN3CCCCC3=O)n1)C(=O)N(C)C2 [Example 37, 5-Methoxy-2-methyl-6-[[4-[3-(2-oxo-1-piperidyl)propylamino]-5-(trifluoromethyl)pyrimidin-2-yl]amino]isoindolin-1-one]
IC50: ≥ 1000 nM

CN(C)S(=O)(=O)c1cc2c(c(Nc3ncc(C(F)(F)F)c(NCCCN4CCCCC4=O)n3)c1)OCC2 [Example 50, N,N-dimethyl-7-[[4-[3-(2-oxo-1-piperidyl)propylamino]-5-(trifluoromethyl)pyrimidin-2-yl]amino]-2,3-dihydrobenzofuran-5-sulfonamide]
IC50: ≥ 1000 nM

O=C1CCCCN1CCCNc1nc(Nc2cc(OCCN3CCOCC3)ccc2Cl)ncc1C(F)(F)F [Example 59, 1-[3-[[2-[2-Chloro-5-(2-morpholinoethoxy)anilino]-5-(trifluoromethyl)pyrimidin-4-yl]amino]propyl]piperidin-2-one]
IC50: 200 to 1000 nM

COc1cc2c(cc1Nc1ncc(C3CC3)c(NCCCNC(=O)C3CCC3)n1)CNCC2 [Example 74, N-[3-[[5-cyclopropyl-2-[(6-methoxy-1,2,3,4-tetrahydroisoquinolin-7-yl)amino]pyrimidin-4-yl]amino]propyl]cyclobutanecarboxamide]
IC50: ≥ 1000 nM

COc1cc2c(cc1Nc1ncc(C(F)(F)F)c(NCCCN3CCCCC3=O)n1)CCNC2 [Example 4, 1-(3-((2-((7-Methoxy-1,2,3,4-tetrahydroisoquinolin-6-yl)amino)-5-(trifluoromethyl)pyrimidin-4-yl)amino)propyl)piperidin-2-one]
IC50: < 200 nM

COc1cc(C(=O)N(C)C)ccc1Nc1ncc(C(F)(F)F)c(NCCCN2CCCCC2=O)n1 [Example 40, 3-Methoxy-N,N-dimethyl-4-[[4-[3-(2-oxo-1-piperidyl)propylamino]-5-(trifluoromethyl)pyrimidin-2-yl]amino]benzamide]
IC50: ≥ 1000 nM

CN1CCc2cc(Nc3ncc(C4CC4)c(NCCCN4CCCC4)n3)ccc2C1 [Example 15, 5-Cyclopropyl-N2-(2-methyl-1,2,3,4-tetrahydroisoquinolin-6-yl)-N4-(3-(pyrrolidin-1-yl)propyl)pyrimidine-2,4-diamine]
IC50: ≥ 1000 nM

O=C1CCCCN1CCCNc1nc(Nc2cc(S(=O)(=O)N3CCOCC3)cc3c2OCC3)ncc1C(F)(F)F [Example 51, 1-[3-[[2-[(5-Morpholinosulfonyl-2,3-dihydrobenzofuran-7-yl)amino]-5-(trifluoromethyl)pyrimidin-4-yl]amino]propyl]piperidin-2-one]
IC50: ≥ 1000 nM

COc1cc2c(cc1Nc1ncc(C(F)(F)F)c(NC3CCN(C(C)=O)CC3)n1)CNCC2 [Example 68, 1-[4-[[2-[(6-Methoxy-1,2,3,4-tetrahydroisoquinolin-7-yl)amino]-5-(trifluoromethyl)pyrimidin-4-yl]amino]-1-piperidyl]ethanone]
IC50: ≥ 1000 nM

COc1ccc(N2CCNCC2)cc1Nc1ncc(C(F)(F)F)c(NCCCN2CCCCC2=O)n1 [Example 22, 4-[4-methoxy-3-[[4-[3-(2-oxo-1-piperidyl)propylamino]-5-(trifluoromethyl)pyrimidin-2-yl]amino]phenyl]piperazine]
IC50: ≥ 1000 nM

O=C(CCNc1nc(Nc2cccc(OC3CCNCC3)c2)ncc1C(F)(F)F)N1CCOCC1 [Example 80, 1-Morpholino-3-[[2-[3-(4-piperidyloxy)anilino]-5-(trifluoromethyl)pyrimidin-4-yl]amino]propan-1-one]
IC50: 200 to 1000 nM

COc1cc2c(cc1Nc1ncc(C(F)(F)F)c(NCCCN3CCCCC3=O)n1)CNCC2 [Example 20, 1-[3-[[2-[(6-Methoxy-1,2,3,4-tetrahydroisoquinolin-7-yl)amino]-5-(trifluoromethyl)pyrimidin-4-yl]amino]propyl]piperidin-2-one]
IC50: < 200 nM

COc1nn(CCN2CCOCC2)cc1Nc1ncc(C(F)(F)F)c(NCCCN2CCCCC2=O)n1 [Example 53, 1-[3-[[2-[[3-Methoxy-1-(2-morpholinoethyl)pyrazol-4-yl]amino]-5-(trifluoromethyl)pyrimidin-4-yl]amino]propyl]piperidin-2-one]
IC50: ≥ 1000 nM

COc1cc2c(cc1Nc1ncc(C(F)(F)F)c(NCCCN3CCCCC3=O)n1)CN(C)CC2 [Example 24, 1-[3-[[2-[(6-Methoxy-2-methyl-3,4-dihydro-1H-isoquinolin-7-yl)amino]-5-(trifluoromethyl)pyrimidin-4-yl]amino]propyl]piperidin-2-one]
IC50: < 200 nM

N[C@H]1CC[C@H](Nc2nc(Nc3ccc(N4CCOCC4)cc3)ncc2C(F)(F)F)CC1 [Example 88, N4-(4-aminocyclohexyl)-N2-(4-morpholinophenyl)-5-(trifluoromethyl)pyrimidine-2,4-diamine]
IC50: 200 to 1000 nM

FC(F)(F)c1cnc(Nc2cnn(C3CCNC3)c2)nc1NCc1cc[nH]n1 (stereo not shown) [Example 85, N4-(1H-pyrazol-3-ylmethyl)-N2-(1-pyrrolidin-3-ylpyrazol-4-yl)-5-(trifluoromethyl)pyrimidine-2,4-diamine]
IC50: < 200 nM

COc1ccc(CO)cc1Nc1ncc(C(F)(F)F)c(NCCCN2CCCCC2=O)n1 [Example 47, 1-[3-[[2-[5-(Hydroxymethyl)-2-methoxy-anilino]-5-(trifluoromethyl)pyrimidin-4-yl]amino]propyl]piperidin-2-one]
IC50: ≥ 1000 nM

O=C1CCCCN1CCCNc1nc(Nc2cc(CO)ccc2Cl)ncc1C(F)(F)F [Example 26, 1-[3-[[2-[2-Chloro-5-(hydroxymethyl)anilino]-5-(trifluoromethyl)pyrimidin-4-yl]amino]propyl]piperidin-2-one]
IC50: < 200 nM

CCOc1nn(C)cc1Nc1ncc(C(F)(F)F)c(NCCCN2CCCCC2=O)n1 [Example 46, 1-[3-[[2-[(3-Ethoxy-1-methyl-pyrazol-4-yl)amino]-5-(trifluoromethyl)pyrimidin-4-yl]amino]propyl]piperidin-2-one]
IC50: 200 to 1000 nM

FC(F)(F)c1cnc(Nc2ccc(N3CCOCC3)cc2)nc1NCCc1c[nH]cn1 [Example 91, N4-[2-(1H-imidazol-4-yl)ethyl]-N2-(4-morpholinophenyl)-5-(trifluoromethyl)pyrimidine-2,4-diamine]
IC50: 200 to 1000 nM

COc1cc(C(=O)O)ccc1Nc1ncc(C(F)(F)F)c(NCCCN2CCCCC2=O)n1 [Example 36, 3-Methoxy-4-[[4-[3-(2-oxo-1-piperidyl)propylamino]-5-(trifluoromethyl)pyrimidin-2-yl]amino]benzoic acid]
IC50: ≥ 1000 nM

COc1cc2c(cc1Nc1ncc(C(F)(F)F)c(NCCCN3CCCC3=O)n1)CNCC2 [Example 81, 1-[3-[[2-[(6-Methoxy-1,2,3,4-tetrahydroisoquinolin-7-yl)amino]-5-(trifluoromethyl)pyrimidin-4-yl]amino]propyl]pyrrolidin-2-one]
IC50: < 200 nM
